Laboratory results published in BindingDB's records for patent US12384776 (Foghorn Therapeutics, 2025).

Target: T1, Bromodomain-containing protein 9 (Human, UniProt Q9H8M2)
T1 sequence (Q9H8M2 whole entry): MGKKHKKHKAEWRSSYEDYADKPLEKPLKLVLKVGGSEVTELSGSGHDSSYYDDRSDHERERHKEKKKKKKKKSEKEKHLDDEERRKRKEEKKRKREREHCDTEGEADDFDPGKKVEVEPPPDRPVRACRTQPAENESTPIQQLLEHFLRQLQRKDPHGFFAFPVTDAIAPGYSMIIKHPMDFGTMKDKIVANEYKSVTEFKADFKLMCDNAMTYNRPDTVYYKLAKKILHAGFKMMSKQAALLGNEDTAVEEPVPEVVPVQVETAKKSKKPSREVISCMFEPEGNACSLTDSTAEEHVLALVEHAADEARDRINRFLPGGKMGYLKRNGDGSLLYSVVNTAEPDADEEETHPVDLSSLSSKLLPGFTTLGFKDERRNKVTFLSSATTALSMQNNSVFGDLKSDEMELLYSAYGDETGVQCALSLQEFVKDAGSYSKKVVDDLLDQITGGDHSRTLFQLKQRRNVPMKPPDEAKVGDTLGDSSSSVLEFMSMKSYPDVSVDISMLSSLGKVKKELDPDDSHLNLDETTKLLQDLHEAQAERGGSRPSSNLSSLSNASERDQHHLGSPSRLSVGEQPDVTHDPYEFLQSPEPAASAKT
Assay: SYO1 BRD9 NanoLuc Degradation Assay
Conditions: read-out: IC50 (the source's name)
Protocol: A stable SYO-1 cell line expressing 3×FLAG-NLuc-BRD9 was generated. On day 0 cells were seeded in 30 μL media into each well of 384-well cell culture plates. The seeding density was 8000 cells/well. On day 1, cells were treated with 30 nL DMSO or 30 nL of 3-fold serially DMSO-diluted compounds (10 points in duplicates with 1 μM as final top dose). Subsequently plates were incubated for 6 hours in a standard tissue culture incubator and equilibrated at room temperature for 15 minutes. Nanoluciferase activity was measured by adding 15 μL of freshly prepared Nano-Glo Luciferase Assay Reagent (Promega N1130), shaking the plates for 10 minutes and reading the bioluminescence using an EnVision reader.

SMILES	DC50 [nM]
CNC(=O)N1CCc2c(-c3cc(OC)c(CN4CCC5(CC(C#Cc6ccc7c(c6)C(=O)N(C6CCC(=O)NC6=O)C7=O)C5)C4)c(OC)c3)cn(C)c(=O)c2C1 (stereo unspecified) [US12384776, Compound D135]	< 10
COc1cc(-c2cn(C)c(=O)c3c2CCN(C(=O)NC2CCC24CCN(CCOc2ccc5c(c2)C(=O)N(C2CCC(=O)NC2=O)C5=O)CC4)C3)cc(OC)c1CN(C)C (stereo unspecified) [US12384776, Compound D239]	> 10
CNC(=O)N1CCc2c(-c3cc(OC)c(CN4CCN(C5CN(c6ccc7c(c6)C(=O)N(C6CCC(=O)NC6=O)C7=O)C5)CC4)c(OC)c3)cn(C)c(=O)c2C1 (stereo unspecified) [US12384776, Compound D164]	< 10
CNC(=O)N1CCc2c(-c3cc(OC)c(CN4CCC5CN(c6ccc7c(c6)C(=O)N(C6CCC(=O)NC6=O)C7=O)C5C4)c(OC)c3)cn(C)c(=O)c2C1 (stereo unspecified) [US12384776, Compound D166]	< 10
CNC(=O)N1CCc2c(-c3cc(OC)c(CN4CCN(CCC5CCN(c6ccc7c(c6)C(=O)N(C6CCC(=O)NC6=O)C7=O)CC5)C(C)(C)C4)c(OC)c3)cn(C)c(=O)c2C1 (stereo unspecified) [US12384776, Compound D101]	< 10
COc1cc(-c2cn(C)c(=O)c3c2CCN(C(=O)NCCOCCOCCNc2cccc4c2C(=O)N(C2CCC(=O)NC2=O)C4=O)C3)cc(OC)c1CN(C)C (stereo unspecified) [US12384776, Compound D12]	> 10
CNC(=O)N1CCc2c(-c3cc(OC)c(CN4CCN(CCC5CCN(c6ccc7c(c6)C(=O)N(C6CCC(=O)NC6=O)C7=O)CC5)CC4C(F)(F)F)c(OC)c3)cn(C)c(=O)c2C1 (stereo unspecified) [US12384776, Compound D97]	< 10
CNC(=O)N1CCc2c(-c3cc(OC)c(CN4CCC5(C4)CN(c4ccc6c(c4)C(=O)N(C4CCC(=O)NC4=O)C6=O)C5)c(OC)c3)cn(C)c(=O)c2C1 (stereo unspecified) [US12384776, Compound D165]	< 10
CNC(=O)N1CCc2c(-c3cc(OC)c(CN4CCC5(CCN(c6ccc7c(c6)C(=O)N(C6CCC(=O)NC6=O)C7=O)C5)C4)c(OC)c3)cn(C)c(=O)c2C1 (stereo unspecified) [US12384776, Compound D162]	< 10

Now from value to compound:

DC50 [nM]	SMILES
< 10	CNC(=O)N1CCc2c(-c3cc(OC)c(CN4CCC5(CC4)CN(c4ccc6c(c4)C(=O)N(C4CCC(=O)NC4=O)C6=O)C5)c(OC)c3)cn(C)c(=O)c2C1 (stereo unspecified) [US12384776, Compound D159]
< 10	CNC(=O)N1CCc2c(-c3cc(OC)c(CN4CCC5(CC4)CCN(c4ccc6c(c4)C(=O)N(C4CCC(=O)NC4=O)C6=O)C5)c(OC)c3)cn(C)c(=O)c2C1 (stereo unspecified) [US12384776, Compound D163]
< 10	CNC(=O)N1CCc2c(-c3cc(OC)c(CN4CC5(CC(C#Cc6ccc7c(c6)C(=O)N(C6CCC(=O)NC6=O)C7=O)C5)C4)c(OC)c3)cn(C)c(=O)c2C1 (stereo unspecified) [US12384776, Compound D133]
< 10	CNC(=O)N1C=Cc2c(-c3cc(OC)c(CN4CCC(CN5CCC6(CC5)CN(c5ccc7c(c5)C(=O)N(C5CCC(=O)NC5=O)C7)C6)C(F)(F)C4)c(OC)c3)cn(C)c(=O)c2C1 (stereo unspecified) [US12384776, Compound D335]
< 10	CNC(=O)N1CCc2c(-c3cc(OC)c(CN4CCC5C4CN5c4ccc5c(c4)C(=O)N(C4CCC(=O)NC4=O)C5=O)c(OC)c3)cn(C)c(=O)c2C1 (stereo unspecified) [US12384776, Compound D157]
< 10	CNC(=O)N1CCc2c(-c3cc(OC)c(CN4CC5(CCN(c6ccc7c(c6)C(=O)N(C6CCC(=O)NC6=O)C7=O)CC5)C4)c(OC)c3)cn(C)c(=O)c2C1 (stereo unspecified) [US12384776, Compound D161]
< 10	CNC(=O)N1CCc2c(-c3cc(OC)c(CN4CCC5(CC4)CC(C#Cc4ccc6c(c4)C(=O)N(C4CCC(=O)NC4=O)C6=O)C5)c(OC)c3)cn(C)c(=O)c2C1 (stereo unspecified) [US12384776, Compound D134]
